{"source": "patent US8951999B2", "about": "“Compounds” (Orexo AB, priority 2009, dated 2015)", "data": [{"target": "T1, recombinant human mPGES-1 (Homo sapiens, UniProt O14684)", "T1 sequence (O14684 1-152)": "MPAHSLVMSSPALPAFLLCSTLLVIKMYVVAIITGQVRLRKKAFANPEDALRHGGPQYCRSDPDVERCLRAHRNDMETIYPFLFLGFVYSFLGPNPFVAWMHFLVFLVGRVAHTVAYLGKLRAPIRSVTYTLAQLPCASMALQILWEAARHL", "test": "Assay B: mPGES-1 enzyme assay (modified)", "assay_type": "biochemical", "settings": "biological assay B (all other compounds); PGH2 final conc. 2 μM, HTRF; read-out: mPGES-1 inhibitory effect IC50", "description": "Assay B: mPGES-1 Enzyme Assay (Modified)\nThe aim of this assay is to determine the affinity of a test compound for the mPGES-1 enzyme.\n47 μl of recombinant human mPGES-1 (˜0.5 μg protein/well) containing microsomal suspension in a buffer containing GSH, (2.5 mmol/L L-Glutathione reduced, dissolved in 0.1 mol/L Phosphat Buffer pH 7.4) is dispensed in a 384-well plate and thereafter 1 μl of the test compound(s) is/are added and incubated for 25 minutes at room temperature. The enzyme reaction is started by the addition of 2 ul PGH2 (final conc. 2 μM) dissolved in water-free Diglyme. After 60 seconds the reaction is terminated by addition of a stop solution containing FeCl2 (10 μL 0.074 mol/l FeCl2). The samples are diluted between 1:25 in PBS (Phosphate Buffered Saline). 10 μl of the diluted samples are transferred to 384-well low volume plate. In order to quantify the amount of PGE2 that has been formed, a homogenous time resolved fluorescent (HTRF) detecting of PGE2 has been performed using a commercially available kit from Cisbio according to the manufactures recommendation. This HTRF-based assay has been described in detail (see: Goedken et al., J Biomol Screen, 2008, 13(7), 619-625). Briefly, the diluted samples are mixed with […] PGE2-d2 conjugate and 5 μl anti-PGE2 cryptate conjugate. After an incubation period of the plates over night, the fluorescence is measured by the use of an appropriate microplate reader.\nThe fluorescence of Europium cryptate (maxex=307 nm, maxem=620 nm) and d2-PGE2 (maxex=620 nm, maxem=665 nm) are measured.\nThe extent of the specific HTRF is measured as a ratio of the emission intensity at 665 nm vs. that at 620 nm at an excitation pulse of 320 nm. The quantification plate contains also wells with different concentrations of PGE2 as calibration curve for the calculation of the PGE2 concentrations from the HTRF ratio values.\nFrom all mPGES enzyme assay the background is subtracted and the IC50 is calculated over a nonlinear regression with conventional software.", "units": {"IC50": "nM"}, "values": [{"smiles": "CC(C)(C(=O)NCc1ccc(Cl)c(C(=O)Nc2ccc(OCC(F)F)c(C(=O)NC3CCC(CO)CC3)c2)c1)C(F)(F)F", "note": "(stereo not drawn) [Example 103]", "IC50": 237}, {"smiles": "CCNC(=O)c1cc(NC(=O)c2cc(CNC(=O)C(C)(C)C(F)(F)F)ccc2Cl)ccc1OCC(F)F", "note": "[Example 112]", "IC50": 16}, {"smiles": "CN1CCC[C@H]1C(=O)NCc1ccc(Cl)c(C(=O)Nc2ccc(OCC(F)F)c(C(=O)Nc3ccc(Br)cc3)c2)c1", "note": "[Example 161]", "IC50": 13}, {"smiles": "CC(C)(C(=O)NCc1ccc(Cl)c(C(=O)Nc2ccc(OCC(F)F)c(C(=O)NC3CCCC3)c2)c1)C(F)(F)F", "note": "[Example 111]", "IC50": 7}, {"smiles": "COc1cc(NC(=O)c2cc(NC(=O)c3cc(CNC(=O)C(C)(C)C(F)(F)F)ccc3Cl)ccc2OCC(F)F)ccc1Br", "note": "[Example 120]", "IC50": 7}, {"smiles": "CC(C)(C(=O)NCc1ccc(Cl)c(C(=O)Nc2ccc(OCC(F)F)c(C(=O)Nc3ccnc4ccccc34)c2)c1)C(F)(F)F", "note": "[Example 131]", "IC50": 9}, {"smiles": "COCCOc1ccc(NC(=O)c2cc(CNC(=O)C(C)(C)C)ccc2Cl)cc1C(=O)N[C@H]1CC[C@H](C(F)(F)F)CC1", "note": "[Example 71]", "IC50": 10}, {"smiles": "CC(C)(C(=O)NCc1ccc(Cl)c(C(=O)Nc2ccc(OCC(F)F)c(C(=O)NC3CCC(F)(F)CC3)c2)c1Cl)C(F)(F)F", "note": "[Example 157]", "IC50": 22}, {"smiles": "CC(C)(C)C(=O)NCc1ccc(Cl)c(C(=O)Nc2ccc(N[C@H]3CC[C@H](C(F)(F)F)CC3)c(C(=O)N[C@H]3CC[C@H](C(F)(F)F)CC3)c2)c1", "note": "[Example 56, N-[4-(trans-4-trifluoromethylcyclohexyl)amino-3-[trans-(4-trifluoromethylcyclohexyl)amino]carbonyl-phenyl]-2-chloro-5-(tert-butylcarbonylamino)methyl-benzamide]", "IC50": 128}, {"smiles": "CC(C)(C)C1CCC(NC(=O)c2cc(NC(=O)c3cc(CNC(=O)C(C)(C)C(F)(F)F)ccc3Cl)ccc2OCC(F)F)CC1", "note": "(stereo not drawn) [Example 87]", "IC50": 5}, {"smiles": "CC(C)(C(=O)NCc1ccc(Cl)c(C(=O)Nc2ccc(OCC(F)F)c(C(=O)Nc3ccc(F)cc3Cl)c2)c1)C(F)(F)F", "note": "[Example 116]", "IC50": 6}, {"smiles": "CC(C)(C(=O)NCc1ccc(Cl)c(C(=O)Nc2ccc(OCC(F)F)c(C(=O)NCCC(F)(F)F)c2)c1)C(F)(F)F", "note": "[Example 115]", "IC50": 15}, {"smiles": "COCCOc1ccc(NC(=O)c2cc(CNC(=O)C3(C(F)(F)F)CC3)ccc2Cl)cc1C(=O)N[C@H]1CC[C@H](C(F)(F)F)CC1", "note": "[Example 53, N-[4-(2-Methoxy)ethoxy-3-(trans-4-trifluoromethylcyclohexyl)aminocarbonyl-phenyl]-2-chloro-5-[1-(trifluoromethyl)cyclopropyl]carbonylaminomethyl-benzamide]", "IC50": 11}, {"smiles": "O=C(Nc1ccc(OCC(F)F)c(C(=O)Nc2ccc(Br)cc2)c1)c1cc(CNC(=O)C2(O)CC2)ccc1Cl", "note": "[Example 162]", "IC50": 8}, {"smiles": "CC(C)(C(=O)NCc1ccc(Cl)c(C(=O)Nc2ccc(OCC(F)F)c(C(=O)Nc3cc(C(F)(F)F)ccn3)c2)c1)C(F)(F)F", "note": "[Example 109]", "IC50": 13}, {"smiles": "Cc1cc(NC(=O)c2cc(NC(=O)c3cc(CNC(=O)C(C)(C)C(F)(F)F)ccc3Cl)ccc2OCC(F)F)ccc1Cl", "note": "[Example 92]", "IC50": 6}, {"smiles": "CC(C)(C)C(=O)NCc1ccc(C(F)(F)F)c(C(=O)Nc2ccc(OCC(F)F)c(C(=O)Nc3ccc(Br)cc3)c2)c1", "note": "[Example 42, N-[4-(2,2-Difluoroethyl)oxy-3-(4-bromophenyl)aminocarbonyl-phenyl]-2-trifluormethyl-5-(tert-butylcarbonylamino)methyl-benzamide]", "IC50": 3}, {"smiles": "CC(C)(C(=O)NCc1ccc(Cl)c(C(=O)Nc2ccc(OCC(F)F)c(C(=O)NCCCC(F)(F)F)c2)c1)C(F)(F)F", "note": "[Example 121]", "IC50": 11}, {"smiles": "CC(C(=O)NCc1ccc(Cl)c(C(=O)Nc2ccc(OCC(F)F)c(C(=O)Nc3ccc(Br)cc3)c2)c1)N1CCCC1", "note": "(stereo not drawn) [Example 170]", "IC50": 50}, {"smiles": "CC(C)C(O)C(=O)NCc1ccc(Cl)c(C(=O)Nc2ccc(OCC(F)F)c(C(=O)Nc3ccc(Br)cc3)c2)c1", "note": "(stereo not drawn) [Example 175]", "IC50": 9}, {"smiles": "CC(C)(C(=O)NCc1ccc(Cl)c(C(=O)Nc2ccc(OCC(F)F)c(C(=O)Nc3ccc(Br)cc3F)c2)c1)C(F)(F)F", "note": "[Example 100]", "IC50": 5}, {"smiles": "CC(C)(C(=O)NCc1ccc(Cl)c(C(=O)Nc2ccc(OCC(F)F)c(C(=O)NCc3ccc(C(F)(F)F)cc3)c2)c1)C(F)(F)F", "note": "[Example 104]", "IC50": 10}, {"smiles": "CC(C)(C(=O)NCc1ccc(Cl)c(C(=O)Nc2ccc(OCC(F)F)c(C(=O)NC[C@@H]3CCCO3)c2)c1)C(F)(F)F", "note": "[Example 117]", "IC50": 40}, {"smiles": "COc1cc(Cl)ccc1NC(=O)c1cc(NC(=O)c2cc(CNC(=O)C(C)(C)C(F)(F)F)ccc2Cl)ccc1OCC(F)F", "note": "[Example 91]", "IC50": 6}, {"smiles": "CC(C)(C(=O)NCc1ccc(Cl)c(C(=O)Nc2ccc(OCC(F)F)c(C(=O)Nc3ccncn3)c2)c1)C(F)(F)F", "note": "[Example 118]", "IC50": 98}, {"smiles": "CC(C)(C)C(=O)NCc1ccc(F)c(C(=O)Nc2ccc(F)c(C(=O)Nc3ccc(Br)cc3)c2)c1F", "note": "[Example 49, N-[4-Fluoro-3-(4-bromophenyl)aminocarbonyl-phenyl]-2,6-difluoro-3-(tert-butylcarbonylamino)methyl-benzamide]", "IC50": 120}, {"smiles": "CC(C)(C(=O)NCc1ccc(Cl)c(C(=O)Nc2ccc(OCC(F)F)c(C(=O)Nc3c(F)ccc(F)c3F)c2)c1F)C(F)(F)F", "note": "[Example 79]", "IC50": 5}, {"smiles": "COC(C)(C)C(=O)NCc1ccc(Cl)c(C(=O)Nc2ccc(OCC(F)F)c(C(=O)Nc3ccc(Br)cc3)c2)c1", "note": "[Example 160]", "IC50": 7}, {"smiles": "CC(C)(C(=O)NCc1ccc(Cl)c(C(=O)Nc2ccc(OCC(F)F)c(C(=O)NC3CCSCC3)c2)c1)C(F)(F)F", "note": "[Example 90]", "IC50": 9}, {"smiles": "CC(C)(C)C(=O)NCc1ccc(Cl)c(C(=O)Nc2cnc(OCC(F)F)c(C(=O)N[C@H]3CC[C@H](C(F)(F)F)CC3)c2)c1Cl", "note": "[Example 178]", "IC50": 7}, {"smiles": "CC(C)(C(=O)NCc1ccc(Cl)c(C(=O)Nc2ccc(OCC(F)F)c(C(=O)NC3CC4CCC3C4)c2)c1)C(F)(F)F", "note": "(stereo not drawn) [Example 124]", "IC50": 5}, {"smiles": "Cc1ccc(CNC(=O)C(C)(C)C)c(Cl)c1C(=O)Nc1ccc(OCC(F)F)c(C(=O)Nc2ccc(Br)cc2)c1", "note": "[Example 52, N-[4-(2,2-Difluoroethyl)oxy-3-(4-bromophenyl)aminocarbonyl-phenyl]-2-chloro-6-methyl-3-(tert-butylcarbonylamino)methyl-benzamide]", "IC50": 4}, {"smiles": "CC(C)(C)C(=O)NCc1ccc(Cl)c(C(=O)Nc2ccc(OC3CCOC3)c(C(=O)Nc3ccc(Br)cc3)c2)c1", "note": "(stereo not drawn) [Example 66, N-[4-(Tetrahydrofuran-3-yloxy)-3-(4-bromophenyl)aminocarbonyl-phenyl]-2-chloro-5-(tert-butyl-carbonylaminomethyl)-benzamide]", "IC50": 5}, {"smiles": "CC(C)(C(=O)NCc1ccc(Cl)c(C(=O)Nc2ccc(OC3CCOC3)c(C(=O)Nc3ccc(Br)cc3)c2)c1)C(F)(F)F", "note": "(stereo not drawn) [Example 69]", "IC50": 4}, {"smiles": "N#CC1(C(=O)NCc2ccc(Cl)c(C(=O)Nc3ccc(OCC(F)F)c(C(=O)Nc4ccc(Br)cc4)c3)c2)CC1", "note": "[Example 173]", "IC50": 48}, {"smiles": "CC(C)(C(=O)NCc1ccc(Cl)c(C(=O)Nc2ccc(OCC(F)F)c(C(=O)NC3CCC(C(F)F)CC3)c2)c1Cl)C(F)(F)F", "note": "(stereo not drawn) [Example 149]", "IC50": 4}]}]}
